{"source": "paper doi:10.1101/2020.08.04.236984v1", "about": "(bioRxiv, 2020)", "key": {"[1]": {"system": "HMG-CoA reductase expression in MDA-MD-231 cells", "conditions": "atorvastatin at a micromolar concentration, ref [57]; cited from earlier work"}, "SKBR-3 cells [2]": {"system": "SKBR-3 cells", "test": "Flow cytometric measurement of penetratin uptake and endo-lysosomal release", "assay_type": "cell-based", "conditions": "atorvastatin 100 nM and 10 μM, 72 h pre-treatment, versus control"}, "[3]": {"system": "HMG-CoA reductase expression in SKBR-3 cells", "conditions": "atorvastatin at a micromolar concentration, ref [57]; cited from earlier work"}, "MDA-MB-231 cells": {"system": "MDA-MB-231 cells", "test": "Membrane fluidity, fluorescence anisotropy of TMA-DPH", "assay_type": "cell-based", "conditions": "atorvastatin 72 h"}, "SKBR-3 cells [4]": {"system": "SKBR-3 cells", "test": "Membrane compactness, generalized polarization of Laurdan", "assay_type": "cell-based", "conditions": "atorvastatin 72 h, 2 μM Laurdan"}}}
{"smiles": "CC(C)c1c(C(=O)Nc2ccccc2)c(-c2ccccc2)c(-c2ccc(F)cc2)n1CC[C@@H](O)C[C@@H](O)CC(=O)O", "note": "[atorvastatin]", "values": [{"measurement": "change in HMG-CoA reductase enzyme expression", "setting": "[1]", "result": "no change"}, {"measurement": "amount of penetratin leaving the endo-lysosomal compartment", "setting": "SKBR-3 cells [2]", "result": "significantly higher"}, {"measurement": "induction of HMG-CoA reductase expression", "setting": "[3]", "result": 4, "unit": "fold"}, {"measurement": "effect on membrane microviscosity (TMA-DPH anisotropy)", "setting": "MDA-MB-231 cells", "result": "unexpected increase"}, {"measurement": "effect on membrane compactness (generalized polarization of Laurdan)", "setting": "SKBR-3 cells [4]", "result": "decrease"}]}
